Assays:
Candida lipolytica = assay: activity against yeast-like fungi, Candida lipolytica; format: cell-based
Saccaromyces cerevisiae = assay: activity against yeast-like fungi, Saccaromyces cerevisiae; format: cell-based
Salmonella typhimurium = assay: serial dilution test, MIC, Salmonella typhimurium; format: cell-based; settings: Salmonella enterica, 37°, Gram-negative
Description: (§1) The components display the following Rf values in a thin layer chromatogram on silica gel plates from Messrs. Merck (silica gel 60, F254): in chloroform/methanol (9:1): X=0.58; I=0.81; in benzene/methanol (9:1): X=0.26; I=0.30; in chloroform/acetone (5:5): X=0.40; I=0.53; and in benzene/acetone (5:5): X=0.47; I=0.74. In a serial dilution test the following minimum inhibitory concentrations (MIC) were found for Lysolipin I: […]

microbial cells = assay: activity against growing and dormant microbial cells and sphaeroplasts; format: cell-based; settings: both growing and dormant cells
[1] = titration / microtitration (pK); format: physicochemical
Description: (OCH3 : determination according to the method of Zeisel). Molecular weight, determined by vapour pressure osmometry in ethyl acetate; found 536. Microtitration with 0.1 N tetramethylammonium hydroxide in methylcellosolve/water (8:2): found pK^xMCS 9.72, equivalent weight 545. Titration with 0.1 N HCl; no step (N atom therefore not basic).

solubility = format: physicochemical
Candida albicans = assay: activity against yeast-like fungi, Candida albicans; format: cell-based
Micro-organisms = assay: MIC of Lysolipin X compared with Lysolipin I, serial dilution test; format: cell-based; settings: Lysolipin X relative to Lysolipin I
Description: as §1

[2] = stability / conversion of Lysolipin X into Lysolipin I; format: physicochemical
Description: Lysolipin X was obtained as a colourless amorphous powder. […] The almost colourless amorphous powder thus obtained, that is to say Lysolipin X, can be crystallized from methanol; on heating the crystals undergo modification at 200° and melt at 260° C.
The pure product so obtained is stable in the absence of light and acid. In a thin layer chromatogram on silica gel in the system chloroform/methanol (39:1), Rf=0.22 (Rf of Lysolipin I=0.39). […] The signals at 0.9 and 1.3 ppm are probably to be ascribed to a fatty impurity. However, most of the signals in the range from 3 to 8 ppm are very similar to those of Lysolipin I and point to the close relationship between the two compounds.
On analogous working up, fractions 76-100 give an almost colourless amorphous powder (393 mg), which is Lysolipin X and cannot be purified by crystallisation. See FIGS. 7 and 8 for the NMR spectrum and the UV spectrum. On thin layer chromatography on silica gel in chloroform/methanol (39:1), Rf=0.22 (compared with 0.39 for Lysolipin I). On the thin layer plate, the spot for Lysolipin X, which is initially very pale and scarcely discernible, becomes deep yellow on standing in the air and, more rapidly, on warming.

SMILES	activity against yeast-like fungi (Candida lipolytica)	activity against yeast-like fungi (Saccaromyces cerevisiae)	MIC (Salmonella typhimurium) [µg/mL]	activity against growing and dormant microbial cells and their sphaeroplasts (microbial cells)	titration with HCl ([1]; 0.1 N HCl, N atom therefore not basic)	pKa ([1]; microtitration with 0.1 N tetramethylammonium hydroxide in methylcellosolve/water (8:2), read-out: pK^xMCS)	solubility in organic solvents (solubility; acetone, dimethylformamide, dimethylsulphoxide, ethyl acetate, hydrocarbons, halogenated hydrocarbons)	solubility in lower alkanols, ether and petroleum ether (solubility; methanol, ethanol, n-propanol, ether, petroleum ether)	solubility in water and aqueous acids and bases (solubility; water and aqueous acids and bases)	activity against yeast-like fungi (Candida albicans)	factor by which the MIC is higher (Micro-organisms)	stability to acid in solvent ([2]; chloroform or methanol with formic, acetic, hydrochloric or sulfuric acid)	stability on heating or irradiation with UV light ([2]; especially in the presence of catalytic amounts of acids)	stability of impure material ([2]; impure)	stability on storage ([2]; impure, stored in the air, unprotected from light, room temperature or higher)	stability of pure product ([2]; in the absence of light and acid)	stability on thin layer plate ([2]; silica gel plate, standing in the air, more rapidly on warming)
COc1c(Cl)ccc2c(=O)c3c(O)c4c5c(c3oc12)OCOC5C(OC)c1cc2c(c(O)c1-4)C(=O)N(C)C(OC)C2O (stereo not drawn) [Lysolipin I]	display an activity	display an activity	> 100	active	no step	9.72	readily soluble	partially soluble	virtually insoluble	display an activity	–	–	–	–	–	–	–
COc1c(Cl)ccc2c(=O)c3c(oc12)C1=C2C(OCO1)C(OC)c1cc4c(c(O)c1C2(O)C3O)C(=O)N(C)C(OC)C4O (stereo not drawn) [Lysolipin X]	display an activity	display an activity	–	active	–	–	–	–	–	display an activity	10-50	converted into Lysolipin I	forms Lysolipin I	unstable	gradually converted into Lysolipin I	stable	converted into Lysolipin I
